Data as given in PMC6422238, “Absence of a human ortholog of rodent Kupffer cell galactose-binding receptor encoded by the CLEC4f gene” (Glycobiology, 2019).

Tests used:
[1] = target: T1, Murine CLEC4f protein; murine Kupffer cell receptor (Mus musculus, UniProt P70194); experiment: affinity re-purification of the labelled protein on galactose-Sepharose; type: binding; settings: immobilised galactose; 25 mM CaCl2, 150 mM NaCl, pH 7.8; eluted with EDTA; fluorescein-labelled protein
T1 construct: fluorescein isothiocyanate labelled
T1 sequence (P70194 70-548 limits assumed): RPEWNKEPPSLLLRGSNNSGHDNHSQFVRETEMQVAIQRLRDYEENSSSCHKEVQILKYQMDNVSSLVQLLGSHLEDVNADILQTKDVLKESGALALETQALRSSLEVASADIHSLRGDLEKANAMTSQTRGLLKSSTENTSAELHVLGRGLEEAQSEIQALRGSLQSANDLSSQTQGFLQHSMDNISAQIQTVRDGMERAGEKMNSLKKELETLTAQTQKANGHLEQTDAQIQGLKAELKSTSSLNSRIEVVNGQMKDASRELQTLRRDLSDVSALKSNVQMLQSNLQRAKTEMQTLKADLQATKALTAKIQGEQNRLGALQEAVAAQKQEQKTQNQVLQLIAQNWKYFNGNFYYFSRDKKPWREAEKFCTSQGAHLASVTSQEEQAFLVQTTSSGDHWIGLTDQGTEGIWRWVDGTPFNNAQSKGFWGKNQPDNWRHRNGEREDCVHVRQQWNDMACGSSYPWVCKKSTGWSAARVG

Bovine CLEC4f protein = target: T2, Bovine CLEC4f protein (Bos taurus, UniProt A0AAA9RVQ7); experiment: affinity chromatography on galactose-Sepharose; type: binding; settings: immobilised galactose (divinyl sulfone coupling); 25 mM CaCl2, 150 mM NaCl, pH 7.8; Ca2+-dependent, eluted with EDTA
T2 construct: C-terminal fragment of the extracellular domain (neck + CRD), E. coli BL21(DE3) inclusion bodies, renatured; 35 kDa calculated; trimer; borders only in supplement
T2 sequence (A0AAA9RVQ7 274-591 limits assumed): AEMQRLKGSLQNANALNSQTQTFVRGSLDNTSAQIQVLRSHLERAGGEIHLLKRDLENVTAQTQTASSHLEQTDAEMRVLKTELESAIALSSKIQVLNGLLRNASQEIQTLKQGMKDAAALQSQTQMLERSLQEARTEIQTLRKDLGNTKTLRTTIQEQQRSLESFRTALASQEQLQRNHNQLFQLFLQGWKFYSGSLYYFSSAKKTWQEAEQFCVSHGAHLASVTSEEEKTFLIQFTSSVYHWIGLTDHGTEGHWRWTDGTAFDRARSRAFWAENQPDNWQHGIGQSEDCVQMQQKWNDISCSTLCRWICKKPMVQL

SMILES: OC[C@H]1OC(O)[C@H](O)[C@@H](O)[C@H]1O (some centres unmarked) [galactose]
- affinity re-purification of the labelled protein on galactose-Sepharose [1]: the chimpanzee, bovine and murine proteins all bind to galactose
- affinity chromatography on galactose-Sepharose (Bovine CLEC4f protein): confirming that it has galactose-binding activity
